“And” between values parts separate entries of the source, which are not always exact repeats. Equal values may be shown once. “Also recorded” adds a separate entry of the source. Read-outs that look alike come from different tables or passages of the source.

Test [1] relates to ADP-induced GPVI dimerization. The experiment in a line: ADP-induced 9E18 binding to platelets (PRP) of patients treated with P2Y12 antagonists, ex vivo. The class given is in vivo, human. The text has this:
FIG. 3: 9E18 as a marker of platelet activation and reactivity: Blood samples were obtained from (A) a cohort of patients with coronary artery disease admitted for percutaneous coronary intervention (n=45) and (B) healthy volunteers (n=40). For each subject, GPVI dimerization, represented by the extent of 9E18 positive platelets, is plotted against P-selectin exposure. Blood samples were obtained from (C) patients treated by prasugel and (D) healthy volunteers. For each subject the binding of FITC-coupled 9E18 to platelets was measured by flow cytometry after incubation of the PRP with buffer or ADP (10 μM) for 20 min.
FIG. 4: 9E18 as a marker of platelet activation and reactivity A: 9E18 binding to platelets and P-selectin exposure were measured in blood samples (PRP) obtained from a cohort of patients with CAD admitted for percutaneous coronary intervention (n=45). B: ADP-induced binding of 9E18 to platelets was measured on blood samples (PRP) from normal subjects and patients with CAD treated by clopidogrel (n=26). Results are expressed as the ratio between the levels of 9E18 binding to ADP-stimulated/non-stimulated samples×100.C: ADP-induced binding to platelets of patients treated by clopidogrel was plotted against corresponding data of the VASP phosphorylation assay.
Blood samples were obtained from a cohort of patients with coronary artery disease (CAD) referred to the department of cardiology of Bichat hospital for percutaneous coronary intervention (BIOCORE-2 study, Clinical Trial Registration—URL: http://clinicaltrials.gov/ct2/show/NCT01186666?term=NCT01186666&rank=1). The study complies with the Declaration of Helsinky and was approved by the institutional ethics committee. All of the patients provided written informed consent. Blood was drawn on 0.109M citrate the day after percutaneous coronary intervention (PCI). PRP, a waste of the established protocol, was used for this study. Analysis was performed less than one hour after blood sampling, on PRP using FITC-coupled 9E18, 3J24 or anti-P-selectin. […]

Test [2] relates to GPVI dimerization on platelets. The test is described as follows: Effect of agonists and inhibitors on 9E18 binding to platelets (GPVI dimerization), flow cytometry. The class given is cell-based, human. Particulars: for effect on 9E18 binding / GPVI dimerization of activated platelets / effect on 9E18 binding to resting as well as activated platelets: ADP-; for effect on 9E18 binding / GPVI dimerization of activated platelets: TRAP- or PMA-activated platelets; for effect on 9E18 binding to resting as well as activated platelets: TRAP- or PMA-activated washed platelets.

The target of test [3] is T1, GPVI dimers on shear-activated platelets (Homo sapiens, UniProt Q9HCN6).
T1 construct: Blood was obtained from healthy volunteers; endogenous in cells; host or cells: human platelets (whole blood, PRP, washed platelets or lysates) from healthy volunteers or coronary artery disease patients
T1 sequence (Q9HCN6 21-339): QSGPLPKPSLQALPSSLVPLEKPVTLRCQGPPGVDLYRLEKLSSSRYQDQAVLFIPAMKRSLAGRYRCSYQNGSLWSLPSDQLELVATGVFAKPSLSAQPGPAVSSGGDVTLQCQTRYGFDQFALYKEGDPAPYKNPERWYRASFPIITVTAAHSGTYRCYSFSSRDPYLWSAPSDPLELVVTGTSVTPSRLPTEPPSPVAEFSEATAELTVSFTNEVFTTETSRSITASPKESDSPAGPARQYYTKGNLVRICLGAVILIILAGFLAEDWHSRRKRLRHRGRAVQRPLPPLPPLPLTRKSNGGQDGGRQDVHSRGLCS
T1 sequence (P30273 19-86 partner): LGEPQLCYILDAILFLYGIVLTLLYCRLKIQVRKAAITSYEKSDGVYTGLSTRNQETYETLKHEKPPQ
The test is described as follows: Shear-induced platelet activation, 9E18 binding. The format is cell-based. Particulars: washed platelets.

For test [4], the system named is FcRγ. The experiment in a line: FcRγ phosphorylation in activated platelets. The class given is cell-based, human. Particulars: conditions leading to GPVI dimerization.
Test [5] concerns platelet adhesion to immobilized collagen. The test is described as follows: GPVI-dependent platelet adhesion to immobilized collagen (static). The class given is cell-based, human. Particulars: PMA-treated platelets.
The subject of test [6] is P-selectin exposure on platelets. The experiment in a line: P-selectin exposure on platelets, flow cytometry. The format is cell-based, human. Conditions: washed platelets. For orientation: Flow cytometry measures light scatter and fluorescence of single cells or particles in a stream.
Test [7] concerns the target T2, 9E18 binding to immobilized GPVI-Fc (Homo sapiens, UniProt Q9HCN6).
T2 construct: Recombinant soluble GPVI was obtained as the extracellular domain of human GPVI; made in house; host or cells: HEK cells
T2 sequence (Q9HCN6 21-267 limits assumed): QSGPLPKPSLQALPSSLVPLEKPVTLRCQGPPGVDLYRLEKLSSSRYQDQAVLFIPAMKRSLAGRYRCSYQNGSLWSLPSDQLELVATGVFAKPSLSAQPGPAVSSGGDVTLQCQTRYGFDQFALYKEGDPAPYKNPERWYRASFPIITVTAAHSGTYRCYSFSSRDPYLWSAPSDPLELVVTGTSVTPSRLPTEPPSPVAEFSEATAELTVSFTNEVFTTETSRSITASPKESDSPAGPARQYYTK
The experiment in a line: Competition: binding of 9E18 to immobilized GPVI-Fc in presence of soluble GPVI.

The target in test [8] is T3, 9E18 binding to stimulated platelets (Homo sapiens, UniProt Q9HCN6).
T3 construct: Blood was obtained from healthy volunteers; endogenous in cells; host or cells: human platelets (whole blood, PRP, washed platelets or lysates) from healthy volunteers or coronary artery disease patients
T3 sequence (Q9HCN6 21-339): T1 sequence (Q9HCN6 21-339)
T3 sequence (P30273 19-86 partner): T1 sequence (P30273 19-86 partner)
The test is described as follows: Inhibition of 9E18 binding to stimulated platelets by soluble GPVI or IV.3. The class given is cell-based. As to the method:
Resting and activated platelets (5×10^7 mL^−1 in whole blood or PRP or buffer) were incubated with FITC-coupled anti-GPVI or P-selectin antibodies for 20 min and, when needed fixed with 1% PFA. Samples were analyzed by flow cytometry using Epics XL.MCL (Coulter) or LSRII (Becton Dickinson Biosciences) apparatus. Platelet glycoprotein quantification was performed using the quantification kit, Platelet GP screen (Byocytex, Marseille, France).

Test [9] addresses collagen. The test is described as follows: Binding of recombinant soluble GPVI to collagen (purified proteins, microtitration wells). More on the design: species or system equine. Particulars: Example 1.

As to `COC(=O)[C@H](c1ccccc1Cl)N1CCc2sccc2C1` [clopidogrel, (+)-(S)-methyl 2-(2-chlorophenyl)-2-(6,7-dihydrothieno[3,2-c]pyridin-5(4H)-yl)acetate], the “ADP-induced 9E18 binding response in treated patients vs normal subjects” value in test [1] (75 mg, PRP) is recorded as “highly significant reduction”.
Consider `Cc1ccc(-c2nn(C(C)(C)C)c3ncnc(N)c23)cc1` [PP1], for which the “level of PMA-induced 9E18 binding in presence of inhibitor” value in test [2] (20 μM inhibitor, PMA-treated platelets) is 28.4%.
Turning to `CCCCC[C@H](O)/C=C/[C@H]1[C@H](O)CC(=O)[C@@H]1CCCCCCC(=O)O` [PGE1, prostaglandin E1], in test [2] (ADP or TRAP), the “effect on 9E18 binding to ADP- or TRAP-stimulated platelets” value is recorded as “dropped to basal level”. Besides, in [2], the “effect on 9E18 binding / GPVI dimerization of activated platelets” value is “drastically reduced; also recorded: inhibited” and the “effect on 9E18 binding to resting as well as activated platelets” value is “reduced”. In addition, the “effect on PMA-induced 9E18 binding to platelets” value in [2] (PMA) is “greatly decreased”. Also, in test [2] (preincubation, no agonist), the “effect on 9E18 binding in the absence of agonist” value is “lowered”.
As to `COc1ccc2c(c1)c(CC(=O)O)c(C)n2C(=O)c1ccc(Cl)cc1` [indomethacine, Indomethacin], the “effect on 9E18 binding to ADP- or TRAP-stimulated platelets” value in [2] (ADP or TRAP) is listed as “no effect”.
On to `CC(=O)N[C@@H](C(=O)O)C(C)(C)SN=O` (racemic) [SNAP], for which, in test [2], the “effect on 9E18 binding / GPVI dimerization of activated platelets” value is on record as “same effect; also recorded: inhibited” and the “effect on 9E18 binding to resting as well as activated platelets” value is recorded as “inhibited”.
For `CC(=O)Oc1cc2c(s1)CCN(C(C(=O)C1CC1)c1ccccc1F)C2` (stereo not shown) [prasugrel], the “ADP-induced increase of 9E18 binding to platelets of treated patients” value in test [1] (PRP, ADP 10 μM, good responders by VASP test) was “not to platelets of 9 patients treated by prasugrel; also recorded: blocked”. Besides, in test [1] (one treated patient (low response)), the “9E18 binding and VASP phosphorylation in response to ADP” value was “remained increased”.
As to `CNC[C@H](O)c1ccc(O)c(O)c1` [Epinephrine], the “factor of increase of 9E18 binding to platelets” value in [2] came to 1.5.
As for “vWF: von Willebrand factor added to washed platelets”, the “effect of addition on shear-induced platelet aggregation and level of 9E18 binding” value in test [3] was “parallel increase”.
Regarding `CCCCCCCCCCCCCC(=O)O[C@@H]1[C@@H](C)[C@@]2(O)[C@@H](C=C(CO)C[C@]3(O)C(=O)C(C)=C[C@@H]23)[C@@H]2C(C)(C)[C@]12OC(C)=O` [PMA], in [4], the “FcRγ phosphorylation in activated platelets” value is “not phosphorylated”. Further, the “effect on GPVI-dependent platelet adhesion to immobilized collagen” value in [5] is reported as “increase”. In addition, the “effect of agonist on binding of 9E18 to platelets” value in test [2] is reported as “significantly increased”. The “level of 9E18 binding to PMA-treated platelets” value in test [2] (PMA alone) is 31.5±4% and 27.7%.
As for `CSc1nc(N)c2ncn([C@@H]3O[C@H](COP(=O)(O)O)[C@@H](O)[C@H]3O)c2n1` [2MeSAMP], in [2], the “effect on 9E18 binding to ADP- or TRAP-stimulated platelets” value was “inhibited; also recorded: prevented” and the “effect on ADP-induced 9E18 binding to platelets” value was “blocked”.
On to apyrase, for which, in test [2] (ADP), the “effect on ADP-induced 9E18 binding to platelets” value is “fully prevented” and the “inhibition of ADP-induced binding of 9E18” value worked out at 85%. The “reduction of TRAP-induced binding of 9E18” value in [2] is 75%. Besides, the “reduction of TRAP-induced binding of 9E18” value in test [2] (listed as Apyrase) is 50%.
Regarding `Nc1ncnc2c1ncn2[C@@H]1O[C@H](COP(=O)(O)OP(=O)(O)O)[C@@H](O)[C@H]1O` [ADP, adenosine diphosphate], the “FcRγ phosphorylation in activated platelets” value in [4] is given as “not phosphorylated”. The “surface exposure of P-selectin induced by agonist” value in test [6] is recorded as “induced surface exposure of P-selectin”. In [2], the “effect of agonist on binding of 9E18 to platelets” value was “increased”.

B1: GPVI-His: extracellular domain of human GPVI fused to a poly-His Tag, monomeric (protein, UniProt Q9HCN6 21-267, looked up)
extracellular domain: T2 sequence (Q9HCN6 21-267 limits assumed)
modifications: extracellular domain poly-His tag
notes: extracellular domain of human GPVI fused to a poly-His Tag, monomeric
As for B1, in [7], the “IC50, inhibition of 9E18 binding to immobilized GPVI-Fc by soluble GPVI” value turned out to be 3.7 ± 2.2 µg/mL. Also, in [7] (GPVI-His up to 10 μg·mL^−1), the “inhibition of 9E18 binding to GPVI-Fc” value stood at 70%. Moreover, the IC50 (in general, the concentration that gives 50% inhibition) in [7] (molar value in brackets, Example 1, read-out: IC50, inhibition of 9E18 binding to immobilized GPVI-Fc by soluble GPVI) worked out at 74 nM. In addition, the Kd – broadly, the concentration at which binding is half-saturated – in [7] (value in brackets after IC50, Example 2, read-out: Kd from competition of 9E18 binding to GPVI-Fc) was found to be 78 nM. The “inhibition of 9E18 binding to stimulated platelets” value in test [8] is “not”; in test [8] (listed as monomers) it was “not by monomers”. Moreover, the affinity for collagen in test [9] was 14.7 ± 3.27 µg/mL.

(Values after patent US9029095B2, “Method and kits for determining platelet susceptibility to activation in a patient” (Institut National de la Sante et de la Recherche Medicale …, priority 2010, dated 2015).)
